From article PMC9231348, “Bio-Oriented Synthesis of Novel (S)-Flurbiprofen Clubbed Hydrazone Schiff’s Bases for Diabetic Management: In Vitro and In Silico Studies” (Pharmaceuticals, 2022) come the findings set out here.

α-Glucosidase (E.C.3.2.1.20), sequence (P53341 whole entry): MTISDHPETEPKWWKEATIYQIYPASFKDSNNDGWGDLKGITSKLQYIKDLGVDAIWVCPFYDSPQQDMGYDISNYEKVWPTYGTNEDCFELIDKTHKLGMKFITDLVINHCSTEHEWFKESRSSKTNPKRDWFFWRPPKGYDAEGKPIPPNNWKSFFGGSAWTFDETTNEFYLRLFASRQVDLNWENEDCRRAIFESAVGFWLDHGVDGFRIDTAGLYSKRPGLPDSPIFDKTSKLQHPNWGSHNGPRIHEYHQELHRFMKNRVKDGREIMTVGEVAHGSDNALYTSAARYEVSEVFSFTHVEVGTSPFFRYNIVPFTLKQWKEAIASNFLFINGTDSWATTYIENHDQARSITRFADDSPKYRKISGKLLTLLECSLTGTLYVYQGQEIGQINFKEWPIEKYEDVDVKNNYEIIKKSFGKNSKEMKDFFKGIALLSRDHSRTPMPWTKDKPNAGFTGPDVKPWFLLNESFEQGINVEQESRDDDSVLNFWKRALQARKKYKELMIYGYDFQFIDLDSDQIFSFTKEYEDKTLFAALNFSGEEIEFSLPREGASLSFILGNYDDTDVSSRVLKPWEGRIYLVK

Test system in the first series: not given
Experiment: not given
In turn, `CC(C(=O)NN=C1CCCCC1)c1ccc(-c2ccccc2)c(F)c1` (centres unmarked) [Compound 5l, N′-Cyclohexylidene-2-(2-fluoro-[1,1′-biphenyl]-4-yl)propanehydrazide] gave a melting point of 177 °C.

Take `C/C(=N\NC(=O)C(C)c1ccc(-c2ccccc2)c(F)c1)c1ccc([N+](=O)[O-])cc1` (centres unmarked) [Compound 5b, (E)-2-(2-Fluoro-[1,1′-biphenyl]-4-yl)-N′-(1-(4-nitrophenyl)ethylidene)propanehydrazide]: the melting point was determined as 175 °C.

Compound `COc1ccc(/C(C)=N/NC(=O)C(C)c2ccc(-c3ccccc3)c(F)c2)cc1` (centres unmarked) [Compound 5n, (E)-2-(2-Fluoro-[1,1′-biphenyl]-4-yl)-N′-(1-(4-methoxyphenyl)ethylidene)propanehydrazide] registered a melting point of 192 °C.

Compound `CC(C)/C(=N\NC(=O)C(C)c1ccc(-c2ccccc2)c(F)c1)c1ccccc1` (centres unmarked) [Compound 5h, (E)-2-(2-Fluoro-[1,1′-biphenyl]-4-yl)-N′-(2-methyl-1-phenylpropylidene)propanehydrazide] displayed a melting point of 177 °C.

Regarding `CCN(CC)c1ccc(/C=N/NC(=O)C(C)c2ccc(-c3ccccc3)c(F)c2)cc1` (centres unmarked) [Compound 4e, (E)-N′-(4-(Diethylamino)benzylidene)-2-(2-fluoro-[1,1′-biphenyl]-4-yl)propanehydrazide], the melting point is 144 to 145 °C.

In turn, `COc1ccc(/C=N/NC(=O)C(C)c2ccc(-c3ccccc3)c(F)c2)cc1O` (centres unmarked) [Compound 4f, (E)-2-(2-Fluoro-[1, 1′-biphenyl]-4-yl)-N′-(3-hydroxy-4-methoxybenzylidene)propanehydrazide] yielded a melting point of 126 to 127 °C.

On to `CCC/C(=N\NC(=O)C(C)c1ccc(-c2ccccc2)c(F)c1)c1ccccc1` (centres unmarked) [Compound 5k, (E)-2-(2-Fluoro-[1,1′-biphenyl]-4-yl)-N′-(1-phenylbutylidene)propanehydrazide], for which the melting point turned out to be 183 °C.

Compound `CC(C(=O)NN=Cc1cc(Br)c(O)c(Br)c1)c1ccc(-c2ccccc2)c(F)c1` (centres unmarked) [Compound 4i, (E)-N′-(3,5-Dibromo-4-hydroxybenzylidene)-2-(2-fluoro-[1,1′-biphenyl]-4-yl)propane hydrazide] displayed a melting point of 161 to 162 °C.

Take `CC(C(=O)N/N=C/c1cccc([N+](=O)[O-])c1)c1ccc(-c2ccccc2)c(F)c1` (centres unmarked) [Compound 4b, (E)-2-(2-Fluoro-[1,1′-biphenyl]-4-yl)-N′-(3-nitrobenzylidene)propanehydrazide]: the melting point was in the range of 145 to 147 °C.

As to `CC/C(=N\NC(=O)C(C)c1ccc(-c2ccccc2)c(F)c1)c1ccccc1` (centres unmarked) [Compound 5g, (E)-2-(2-Fluoro-[1,1′-biphenyl]-4-yl)-N′-(1-phenylpropylidene)propanehydrazide], the melting point was 179 °C.

Turning to `CC(C(=O)N/N=C/c1ccc(C(=O)O)cc1)c1ccc(-c2ccccc2)c(F)c1` (centres unmarked) [Compound 4p, (E)-4-((2-(2-(2-Fluoro-[1,1′-biphenyl]-4-yl)propanoyl)hydrazono)methyl)benzoic acid], the melting point fell in the range of 176 to 177 °C.

In the case of `CCCCC/C=N/NC(=O)C(C)c1ccc(-c2ccccc2)c(F)c1` (centres unmarked) [Compound 4l, (E)-2-(2-Fluoro-[1, 1′-biphenyl]-4-yl)-N′-hexylidenepropanehydrazide], the melting point was 129 to 130 °C.

As for `CC(C(=O)N/N=C/c1ccc(Br)cc1F)c1ccc(-c2ccccc2)c(F)c1` (centres unmarked) [Compound 4g, (E)-N′-(4-Bromo-2-fluorobenzylidene)-2-(2-fluoro-[1,1′-biphenyl]-4-yl)propanehydrazide], the melting point is 166 to 168 °C.

For the compound `C/C(=N\NC(=O)C(C)c1ccc(-c2ccccc2)c(F)c1)C1CC1` (centres unmarked) [Compound 5j, (E)-N′-(1-Cyclopropylethylidene)-2-(2-fluoro-[1,1′-biphenyl]-4-yl)propanehydrazide], the melting point is 160 °C.

The compound `CC(C(=O)N/N=C/c1ccc(O)cc1O)c1ccc(-c2ccccc2)c(F)c1` (centres unmarked) [Compound 4c, (E)-N′-(2,4-Dihydroxybenzylidene)-2-(2-fluoro-[1,1′-biphenyl]-4-yl)propanehydrazide] had a melting point of 133 to 135 °C.

On to `COc1ccc2c(c1)CCC/C2=N\NC(=O)C(C)c1ccc(-c2ccccc2)c(F)c1` (centres unmarked) [Compound 5c, (E)-2-(2-Fluoro-[1,1′-biphenyl]-4-yl)-N′-(6-methoxy-3,4-dihydronaphthalen-1(2H) -ylidene)propanehydrazide], for which the melting point was 187 °C.

The compound `C/C(=N\NC(=O)C(C)c1ccc(-c2ccccc2)c(F)c1)c1ccccc1` (centres unmarked) [Compound 5f, (E)-2-(2-Fluoro-[1,1′-biphenyl]-4-yl)-N′-(1-phenylethylidene)propanehydrazide] had a melting point of 181 °C.

`CC(C(=O)N/N=C/c1cccc2ccccc12)c1ccc(-c2ccccc2)c(F)c1` (centres unmarked) [Compound 4n, (E)-2-(2-Fluoro-[1,1′-biphenyl]-4-yl)-N′-(naphthalen-1-ylmethylene)propanehydrazide] displayed a melting point of 168 to 170 °C.

`C/C(=N\NC(=O)C(C)c1ccc(-c2ccccc2)c(F)c1)c1ccc(O)cc1` (centres unmarked) [Compound 5a, (E)-2-(2-Fluoro-[1,1′-biphenyl]-4-yl)-N′-(1-(4-hydroxyphenyl)ethylidene)propanehydrazide] had a melting point of 152 °C.

Compound `CCC/C=N/NC(=O)C(C)c1ccc(-c2ccccc2)c(F)c1` (centres unmarked) [Compound 4k, (E)-N′-Butylidene-2-(2-fluoro-[1,1′-biphenyl]-4-yl)propanehydrazide] came in with a melting point of 168 to 169 °C.

Compound `CC(C(=O)N/N=C/c1cccc(Br)c1)c1ccc(-c2ccccc2)c(F)c1` (centres unmarked) [Compound 4h, (E)-N′-(3-Bromobenzylidene)-2-(2-fluoro-[1,1′-biphenyl]-4-yl)propanehydrazide] returned a melting point of 147 to 148 °C.

Consider `CCOc1cc(/C=N/NC(=O)C(C)c2ccc(-c3ccccc3)c(F)c2)ccc1O` (centres unmarked) [Compound 4j, (E)-N′-(3-Ethoxy-4-hydroxybenzylidene)-2-(2-fluoro-[1,1′-biphenyl]-4-yl)propanehydrazide], for which the melting point lay within 173 to 174 °C.

`CCCC/C(=N\NC(=O)C(C)c1ccc(-c2ccccc2)c(F)c1)c1ccccc1` (centres unmarked) [Compound 5i, (E)-2-(2-Fluoro-[1,1′-biphenyl]-4-yl)-N′-(1-phenylpentylidene)propanehydrazide] had a melting point of 165 °C.

Turning to `COc1cccc(/C=N/NC(=O)C(C)c2ccc(-c3ccccc3)c(F)c2)c1O` (centres unmarked) [Compound 4d, (E)-2-(2-Fluoro-[1,1′-biphenyl]-4-yl)-N′-(2-hydroxy-3-methoxybenzylidene)propanehydrazide], the melting point was in the range of 154 to 155 °C.

`COc1ccccc1/C=N/NC(=O)C(C)c1ccc(-c2ccccc2)c(F)c1` (centres unmarked) [Compound 4m, (E)-2-(2-Fluoro-[1,1′-biphenyl]-4-yl)-N′-(2-methoxybenzylidene)propanehydrazide] registered a melting point of 131 to 132 °C.

With `COc1ccccc1/C(C)=N/NC(=O)C(C)c1ccc(-c2ccccc2)c(F)c1` (centres unmarked) [Compound 5m, (E)-2-(2-Fluoro-[1,1′-biphenyl]-4-yl)-N′-(1-(2-methoxyphenyl)ethylidene)propanehydrazide], the melting point is 198 °C.

On to `COc1cc(/C=N/NC(=O)C(C)c2ccc(-c3ccccc3)c(F)c2)cc(OC)c1OC` (centres unmarked) [Compound 4a, (E)-2-(2-Fluoro-[1,1′-biphenyl]-4-yl)-N′-(3,4,5-trimethoxybenzylidene)propanehydrazide], for which the melting point was 139 to 140 °C.

A further series addresses α-Glucosidase (E.C.3.2.1.20) (Saccharomyces cerevisiae, UniProt P53341). Kind of series: In vitro α-glucosidase inhibition assay. Format: biochemical.
Procedure: α-Glucosidase (E.C.3.2.1.20) enzyme inhibition assay was developed by using 0.1 M phosphate buffer (pH 6.8) at 37 °C [39, 40, 41]. The enzyme (0.2 μ/mL) was incubated in phosphate-buffered saline with different concentrations of tested compounds at 37 °C for 15 min. […] Test compounds were substituted with DMSO-d6 (7.5% final) in the control. […] The % inhibition was calculated by using the following formula:
% Inhibition = 100 − (OD test well/OD control) × 100.
`COc1ccc(/C=N/NC(=O)C(C)c2ccc(-c3ccccc3)c(F)c2)cc1O` (centres unmarked) [Compound 4f, (E)-2-(2-Fluoro-[1, 1′-biphenyl]-4-yl)-N′-(3-hydroxy-4-methoxybenzylidene)propanehydrazide]: the “α-glucosidase inhibitory activity (in words)” value is listed as “moderate-to-low activities”.

For the compound `CC/C(=N\NC(=O)C(C)c1ccc(-c2ccccc2)c(F)c1)c1ccccc1` (centres unmarked) [Compound 5g, (E)-2-(2-Fluoro-[1,1′-biphenyl]-4-yl)-N′-(1-phenylpropylidene)propanehydrazide], the “α-glucosidase inhibitory activity (in words)” value is given as “moderate-to-low activities”.

Take `C/C(=N\NC(=O)C(C)c1ccc(-c2ccccc2)c(F)c1)c1ccccc1` (centres unmarked) [Compound 5f, (E)-2-(2-Fluoro-[1,1′-biphenyl]-4-yl)-N′-(1-phenylethylidene)propanehydrazide]: the “α-glucosidase inhibitory activity (in words)” value was “moderate-to-low activities”.

For `CC(C(=O)N/N=C/c1cccc2ccccc12)c1ccc(-c2ccccc2)c(F)c1` (centres unmarked) [Compound 4n, (E)-2-(2-Fluoro-[1,1′-biphenyl]-4-yl)-N′-(naphthalen-1-ylmethylene)propanehydrazide], the “α-glucosidase inhibitory activity (in words)” value is “moderate-to-low activities”.

Turning to `CCC/C=N/NC(=O)C(C)c1ccc(-c2ccccc2)c(F)c1` (centres unmarked) [Compound 4k, (E)-N′-Butylidene-2-(2-fluoro-[1,1′-biphenyl]-4-yl)propanehydrazide], the “α-glucosidase inhibitory activity (in words)” value is “moderate-to-low activities”.
